The structures appear in SMILES notation.

For one test, the target named is T1, TLR7 receptor (Homo sapiens, UniProt Q9NYK1).
T1 construct: PBL contain as a subpopulation plasmacytoid dendritic cells which are the natural interferon producing cells; endogenous in cells; host or cells: peripheral blood lymphocytes (PBL), containing plasmacytoid dendritic cells
T1 sequence (Q9NYK1 27-1049): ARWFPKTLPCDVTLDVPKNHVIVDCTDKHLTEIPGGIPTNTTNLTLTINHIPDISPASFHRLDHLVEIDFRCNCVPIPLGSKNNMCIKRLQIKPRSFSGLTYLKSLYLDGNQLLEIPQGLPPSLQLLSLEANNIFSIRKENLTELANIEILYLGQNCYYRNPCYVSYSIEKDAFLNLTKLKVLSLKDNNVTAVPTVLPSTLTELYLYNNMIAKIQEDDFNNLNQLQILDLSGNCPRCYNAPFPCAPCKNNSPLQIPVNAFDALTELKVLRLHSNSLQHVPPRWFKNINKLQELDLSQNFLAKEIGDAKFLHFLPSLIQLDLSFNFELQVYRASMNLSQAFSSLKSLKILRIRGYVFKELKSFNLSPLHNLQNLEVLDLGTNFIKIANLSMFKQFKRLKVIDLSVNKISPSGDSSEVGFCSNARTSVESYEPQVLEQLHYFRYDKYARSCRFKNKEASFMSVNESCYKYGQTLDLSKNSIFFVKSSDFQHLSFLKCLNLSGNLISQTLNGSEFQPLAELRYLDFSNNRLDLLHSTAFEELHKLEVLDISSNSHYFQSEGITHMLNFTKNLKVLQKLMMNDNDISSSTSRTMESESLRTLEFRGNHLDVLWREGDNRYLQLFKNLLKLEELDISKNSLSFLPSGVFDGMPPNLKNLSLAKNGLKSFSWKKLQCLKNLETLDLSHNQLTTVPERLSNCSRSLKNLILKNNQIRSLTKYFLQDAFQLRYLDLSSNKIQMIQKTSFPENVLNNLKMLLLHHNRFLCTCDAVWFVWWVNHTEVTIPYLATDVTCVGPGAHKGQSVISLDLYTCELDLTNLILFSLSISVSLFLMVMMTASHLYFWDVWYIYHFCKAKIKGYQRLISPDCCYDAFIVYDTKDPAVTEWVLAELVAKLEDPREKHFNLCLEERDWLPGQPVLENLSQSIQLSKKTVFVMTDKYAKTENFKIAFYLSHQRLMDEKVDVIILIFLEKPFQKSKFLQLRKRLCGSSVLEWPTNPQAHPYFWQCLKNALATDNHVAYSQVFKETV
Kind of test: PBL/HCV replicon bioassay. Type of test: cell-based. The settings on record: concentration applied to PBL (24 h) giving 50% reduction of HCV replicon levels (luciferase) after transfer of PBL culture medium to Huh-7 replicon cells (48 h). As to the method: PBL contain as a subpopulation plasmacytoid dendritic cells which are the natural interferon producing cells during an infection and as such are an excellent model in which to profile interferon inducers. As an extremly sensitive antiviral bioassay, supernatant taken from PBL is assayed for antiviral activity in the HCV replicon system.
The HCV replicon (Huh-5-2[I389luc-ubi-neo-NS3-3′/ET]) is an in vitro model of HCV replication in which the luciferase reporter is incorporated into HCV sequences and stably maintained in the human hepatoma cell line Huh-7. The firefly luciferase reporter is expressed as a luciferase-ubiquitin-neomycin phosphotransferase fusion protein which is cleaved by host proteases to release luciferase. The replicon also contains an internal EMCV IRES, which drives translation of HCV NS3-5B polyprotein, which harbour cell culture adapted mutations to permit high cloning efficiency. […] Firefly luciferase activity is detected using a Bright-Glo™ Luciferase Assay System manufactured by Promega.
An initial 3 fold serial dilution series of compounds in 100% DMSO is prepared from stocks. The dilution series is then further diluted 100 fold with complete RPMI-FCS. The final concentration of DMSO in the assay is thus 0.1% and that of the test compound is 1/1000 in the 100% DMSO dilution series. PBL are prepared seeded at 5×10^5/well/90 μl into the previously prepared compound containing assay plates (96 well clear bottomed TC grade) and incubated for 24 h.
LucUbiNeo HCV replicon cells are seeded at 10^4/well/90 μl. These are incubated for 24 h. After 24 h, 10 μl of medium is transferred from the PBL assay plates to the HCV replicon plates and incubated for a further 48 h.

Test [1] has as its system all other known Toll-like Receptors. Briefly: Selectivity for TLR7 over other Toll-like Receptors.
For test [2], the system named is MEK, CDK1, CDK2, JNK, MSK, MSK-1, SGK, AMPK, MLCK, CHK-2, PDE3, PDE4 and PDE5. Briefly: Selectivity for TLR7 over kinases and phosphodiesterase enzymes. Type of test: biochemical.
Test [3] has as its system HCV replicon containing cells. Kind of test: Direct response of HCV replicon containing cells to TLR agonists. The settings on record: applied directly to replicon cells, without PBL conditioned medium. The class given is cell-based, human.
The subject of test [4] is MAP (mitogen-activated protein kinase). Kind of test: Selectivity for TLR7 over MAP. The class given is biochemical.

One may read the EC50 as the concentration needed to bring the measured effect to its halfway point. A high value points to lower potency in that assay. Turning to `CCc1cc2c([nH]c(=O)n2Cc2ccccc2)c(N)n1` [Example 37], on TLR7 receptor, it took 786 nM to reach a half-maximal effect (EC50).

In turn, `Cc1ccc(Cn2c(=O)[nH]c3c(N)nc(-c4cnco4)cc32)cn1` [Example 78] displayed a concentration giving a half-maximal response (EC50) on TLR7 receptor of 100 nM.

As to `Cc1cc2c([nH]c(=O)n2Cc2ccccc2)c(N)n1` [Example 2, 4-Amino-1-benzyl-6-methyl-1,3-dihydro-imidazo[4,5-c]pyridin-2-one], the EC50 at TLR7 receptor came out at 1540 nM. Further, the “selectivity for the TLR7 receptor over all other known Toll-like Receptors” value in test [1] is listed as “selective”. Further, the “selectivity for the TLR7 receptor over MEK, CDK1, CDK2, JNK, MSK, MSK-1, SGK, AMPK, MLCK, CHK-2, PDE3, PDE4 and PDE5” value (“selectivity … PDE4 and PDE5” below) in test [2] was “selective”.

On to `Cc1cnn(-c2cc3c([nH]c(=O)n3Cc3ccccc3)c(N)n2)c1` [Example 86], for which the EC50 on TLR7 receptor is 550 nM.

As to `CCCc1cc2c([nH]c(=O)n2Cc2ccccc2)c(N)n1` [Example 23], the EC50 at TLR7 receptor is 1080 nM.

Compound `Nc1nc(C(F)(F)F)cc2c1[nH]c(=O)n2Cc1ccc(Br)cc1` [Example 70] returned an EC50 on TLR7 receptor of 656 nM.

`CC(C)c1cc2c([nH]c(=O)n2Cc2ccccc2)c(N)n1` [Example 24] came in with a 50% effective concentration (EC50) on TLR7 receptor of 1600 nM.

Compound `Nc1nc(-c2ccccc2F)cc2c1[nH]c(=O)n2Cc1ccccc1` [Example 22, 4-Amino-1-benzyl-6-(2-fluoro-phenyl)-1,3-dihydro-imidazo[4,5-c]pyridin-2-one] gave an EC50 at TLR7 receptor of 450 nM. This EC50 is about 3.6-fold lower than that of the compound before.

At TLR7 receptor, `Nc1nc2c(c3c1[nH]c(=O)n3Cc1ccccc1)CCC2` [Example 31] registered an EC50 of 3260 nM.

`Nc1nc(-c2ncc[nH]2)cc2c1[nH]c(=O)n2Cc1ccccc1` [Example 21, 4-Amino-1-benzyl-6-(1H-imidazol-2-yl)-1,3-dihydro-imidazo[4,5-c]pyridin-2-one] showed an EC50 on TLR7 receptor of 215 nM.

The compound `COCCOc1cc2c([nH]c(=O)n2Cc2ccccc2)c(N)n1` [Example 17, 4-Amino-1-benzyl-6-(2-methoxy-ethoxy)-1,3-dihydro-imidazo[4,5-c]pyridin-2-one] returned an EC50 at TLR7 receptor of 955 nM.

In the case of `CC(C)Cn1cnc2c(N)nc3ccccc3c21` [Imiquimod], the “direct response of HCV replicon containing cells to the TLR agonist” value in test [3] was “do not respond directly”.

In turn, `COC(=O)c1cc2c([nH]c(=O)n2Cc2ccccc2)c(N)n1` [Example 4, 4-Amino-1-benzyl-2-oxo-2,3-dihydro-1H-imidazo[4,5-c]pyridine-6-carboxylic acid methyl ester] had an EC50 at TLR7 receptor of 497 nM. That is a sub-micromolar value.

`COCc1cc2c([nH]c(=O)n2Cc2ccccc2)c(N)n1` [Example 40] showed an EC50 on TLR7 receptor of 427 nM. This EC50 and that of the compound before are within 1.5-fold of each other.

Turning to `Nc1nc(-n2cccn2)cc2c1[nH]c(=O)n2Cc1ccccc1` [Example 83], the EC50 at TLR7 receptor came to 470 nM. This EC50 and that of the compound before are within 1.5-fold of each other.

At TLR7 receptor, `Nc1nc(C(F)F)cc2c1[nH]c(=O)n2Cc1ccccc1` [Example 38] displayed an EC50 of 848 nM.

Consider `Cc1nc(N)c2[nH]c(=O)n(Cc3ccccc3)c2c1C` [Example 3, 1-Benzyl-4-amino-6,7-dimethyl-1,3-dihydro-imidazo[4,5-c]Pyridin-2-one], for which the midpoint of the response at TLR7 receptor, the EC50, lay at 266 nM. Compared with the last compound, the EC50 is about 3.2-fold lower.

`Nc1nc(-c2ncco2)cc2c1[nH]c(=O)n2Cc1ccccc1` [Example 12, 4-Amino-1-benzyl-6-oxazol-2-yl-1,3-dihydro-imidazo[4,5-c]pyridin-2-one] gave an EC50 on TLR7 receptor of 240 nM. Also, the “selectivity for the TLR7 receptor over all other known Toll-like Receptors” value in test [1] is “selective”. Also, in test [4], the “selectivity for the TLR7 receptor over MAP (mitogen-activated protein kinase)” value is recorded as “selective”. In addition, the “selectivity … PDE4 and PDE5” value in test [2] is “selective”.

For the compound `Nc1nc(C2CC2)cc2c1[nH]c(=O)n2Cc1ccccc1` [Example 1, 4-Amino-1-benzyl-6-cyclopropyl-1,3-dihydro-imidazo[4,5-c]pyridin-2-one], on TLR7 receptor, the response was half-maximal at 933 nM (EC50). Also, the “selectivity for the TLR7 receptor over all other known Toll-like Receptors” value in test [1] is “selective”. In test [2], the “selectivity … PDE4 and PDE5” value is given as “selective”.

Take `Nc1nc(C(F)(F)F)cc2c1[nH]c(=O)n2Cc1ccc(F)cc1` [Example 54]: at TLR7 receptor, the EC50 was 302 nM.

`COCCNCc1cc2c([nH]c(=O)n2Cc2ccccc2)c(N)n1` [Example 34]: the response on TLR7 receptor was half-maximal at 1300 nM (EC50).

With `COCCn1c(=O)[nH]c2c(N)nc(C(F)(F)F)cc21` [Example 55], the EC50 at TLR7 receptor worked out at 2000 nM. This EC50 lies about 1.5-fold higher than the previous one.

At TLR7 receptor, `Nc1nc(-c2ccccn2)cc2c1[nH]c(=O)n2Cc1ccccc1` [Example 32] had an EC50 of 1710 nM.

In the case of `COCCNc1cc2c([nH]c(=O)n2Cc2ccccc2)c(N)n1` [Example 49], the EC50 at TLR7 receptor stood at 2170 nM.

Turning to `Nc1nc(C(F)(F)F)cc2c1[nH]c(=O)n2Cc1ccc(Cl)nc1` [Example 60], a half-maximal effect on TLR7 receptor (EC50) was put at 445 nM.

For `Cc1cc2c([nH]c(=O)n2Cc2cccc(F)c2)c(N)n1` [Example 27], the midpoint of the response at TLR7 receptor, the EC50, lay at 453 nM.

In the case of `Cc1nc(N)c2[nH]c(=O)n(Cc3ccc(F)cc3)c2c1C` [Example 61], the EC50 on TLR7 receptor amounted to 1680 nM.

`CC(=O)c1cc2c([nH]c(=O)n2Cc2ccccc2)c(N)n1` [Example 36]: on TLR7 receptor, it took 368 nM to reach a half-maximal effect (EC50). Against the preceding compound, the EC50 is about 4.6-fold lower.

`Cc1cc2c([nH]c(=O)n2Cc2cccc(C(F)(F)F)c2)c(N)n1` [Example 25] returned an EC50 on TLR7 receptor of 1000 nM. Compared with the last compound, the EC50 is about 2.7-fold higher.

At TLR7 receptor, `Nc1nccc2c1[nH]c(=O)n2Cc1ccccc1` [Example 50] yielded an EC50 of 1970 nM.

The compound `CCc1coc(-c2cc3c([nH]c(=O)n3Cc3ccc(C)nc3)c(N)n2)n1` [Example 20, 4-Amino-6-(4-ethyl-oxazol-2-yl)-1-(6-methyl-pyridin-3-ylmethyl)-1,3-dihydro-imidazo[4,5-c]pyridin-2-one] yielded an EC50 on TLR7 receptor of 700 nM. This EC50 is about 2.8-fold lower than that of the compound before.

Compound `N#Cc1cc2c([nH]c(=O)n2Cc2ccccc2)c(N)n1` [Example 39] returned an EC50 on TLR7 receptor of 2200 nM.

Regarding `Cc1ccc(Cn2c(=O)[nH]c3c(N)nc(-c4ncno4)cc32)cn1` [Example 82], the 50% effective concentration (EC50) at TLR7 receptor came to 127 nM. Compared with the last compound, the EC50 is about 17-fold lower.
